This note sets out measurements from US20240124417A1, “COMPOUNDS USEFUL AS IMMUNOMODULATORS” (Bristol-Myers Squibb Company, priority 2019, published 2024).

Each structure is given as a SMILES string.

T1 sequence (Q9NZQ7 18-239): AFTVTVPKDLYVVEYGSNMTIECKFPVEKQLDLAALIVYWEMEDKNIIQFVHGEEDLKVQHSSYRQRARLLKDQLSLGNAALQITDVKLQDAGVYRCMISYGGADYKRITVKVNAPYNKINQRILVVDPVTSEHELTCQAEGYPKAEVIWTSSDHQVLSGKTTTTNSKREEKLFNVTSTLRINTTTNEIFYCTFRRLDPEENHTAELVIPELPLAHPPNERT

The assay addresses T1, PD-1/PD-L1 (Homo sapiens, UniProt Q9NZQ7).
T1 construct: TVMV protease site linker (C); made in house; host or cells: HEK293T cells
In words: PD-1/PD-L1 Homogenous Time-Resolved Fluorescence (HTRF) binding assay. The following applies: PD-L1-His 10 nM, PD-1-Ig 20 nM. The source says: The ability of the compounds of the invention to bind to PD-L1 was investigated using a PD-1/PD-L1 Homogenous Time-Resolved Fluorescence (HTRF) binding assay.
Homogenous Time-Resolved Fluorescence (HTRF) binding assay.
The interaction of PD-1 and PD-L1 can be assessed using soluble, purified preparations of the extracellular domains of the two proteins. The PD-1 and PD-L1 protein extracellular domains were expressed as fusion proteins with detection tags, for PD-1, the tag was the Fc portion of Immunoglobulin (PD-1-Ig) and for PD-L1 it was the 6 histidine motif (PD-L1-His). All binding studies were performed in an HTRF assay buffer consisting of dPBS supplemented with 0.1% […] bovine serum albumin and 0.05% (v/v) Tween-20. For the h/PD-L1-His binding assay, inhibitors were pre-incubated with PD-L1-His (10 nM final) for 15 m in 4 μl of assay buffer, followed by addition of PD-1-Ig (20 nM final) in 1 μl of assay buffer and further incubation for 15 m. HTRF detection was achieved using europium crypate-labeled anti-Ig (1 nM final) and allophycocyanin (APC) labeled anti-His (20 nM final). Antibodies were diluted in HTRF detection buffer and 5 μl was dispensed on top of the binding reaction. […] Additional binding assays were established between the human proteins PD-1-Ig/PD-L2-His (20 & 5 nM, respectively) and CD80-His/PD-L1-Ig (100 & 10 nM, respectively). […]
The term IC50 denotes the point on the concentration scale where inhibition reaches its midpoint. `Cc1c(COc2cc(OCc3cncc(C#N)c3)c(CNc3nnn[nH]3)cc2Cl)cccc1-c1cccc(OCCCN2CC[C@@H](O)C2)c1C` [Example 1001, (R)-5-((2-(((1H-Tetrazol-5-yl)amino)methyl)-4-chloro-5-((3′-(3-(3-hydroxypyrrolidin-1-yl)propoxy)-2,2′-dimethyl-[1,1′-biphenyl]-3-yl)methoxy)phenoxy)methyl)nicotinonitrile] had an IC50 of 4.9 nM.
`Cc1c(COc2cc(OCc3cncc(C#N)c3)c(CNCc3nnn[nH]3)cc2Cl)cccc1-c1cccc(OCCCN2CC[C@@H](O)C2)c1C` [Example 1002, (R)-5-((2-((((1H-Tetrazol-5-yl)methyl)amino)methyl)-4-chloro-5-((3′-(3-(3-hydroxy-pyrrolidin-1-yl)propoxy)-2,2′-dimethyl-[1,1′-biphenyl]-3-yl)methoxy)phenoxy)methyl)-nicotinonitrile] came in with an IC50 of 2.9 nM.
With `Cc1c(COc2cc(OCc3cncc(C#N)c3)c(CN3CCCC(c4ncc[nH]4)C3)cc2Cl)cccc1-c1cccc(OCCCN2CC[C@@H](O)C2)c1C` (stereo partly drawn) [Example 1003, 5-((2-((3-(1H-Imidazol-2-yl)piperidin-1-yl)methyl)-4-chloro-5-((3′-(3-((R)-3-hydroxy-pyrrolidin-1-yl)propoxy)-2,2′-dimethyl-[1,1′-biphenyl]-3-yl)methoxy)phenoxy)methyl)-nicotinonitrile], the IC50 worked out at 1.4 nM.
With `Cc1c(COc2cc(OCc3cncc(C#N)c3)c(CN(C)CCc3nn[nH]n3)cc2Cl)cccc1-c1cccc(OCCCN2CC[C@@H](O)C2)c1C` [Example 1004, (R)-5-((2-(((2-(2H-Tetrazol-5-yl)ethyl)(methyl)amino)methyl)-4-chloro-5-((3′-(3-(3-hydroxypyrrolidin-1-yl)propoxy)-2,2′-dimethyl-[1,1′-biphenyl]-3-yl)methoxy)phenoxy)-methyl)nicotinonitrile], the half-inhibitory concentration (IC50) came out at 1.1 nM.
In turn, `Cc1c(COc2cc(OCc3cncc(C#N)c3)c(CN(C)C(C)c3nnn[nH]3)cc2Cl)cccc1-c1cccc(OCCCN2CC[C@@H](O)C2)c1C` (stereo partly drawn) [Example 1005, 5-((2-(((1-(1H-Tetrazol-5-yl)ethyl)(methyl)amino)methyl)-4-chloro-5-((3′-(3-((R)-3-hydroxypyrrolidin-1-yl)propoxy)-2,2′-dimethyl-[1,1′-biphenyl]-3-yl)methoxy)phenoxy)methyl)nicotinonitrile] gave a 50% inhibitory concentration (IC50) of 2.3 nM.
As for `Cc1c(COc2cc(OCc3cncc(C#N)c3)c(CN(C)CC(C)c3nnn[nH]3)cc2Cl)cccc1-c1cccc(OCCCN2CC[C@@H](O)C2)c1C` (stereo partly drawn) [Example 1006, 5-((2-(((2-(1H-Tetrazol-5-yl)propyl)(methyl)amino)methyl)-4-chloro-5-((3′-(3-((R)-3-hydroxypyrrolidin-1-yl)propoxy)-2,2′-dimethyl-[1,1′-biphenyl]-3-yl)methoxy)phenoxy)methyl)nicotinonitrile], the concentration for half-maximal inhibition (IC50) came out at 2.7 nM.
In the case of `CCN(Cc1nnn[nH]1)Cc1cc(Cl)c(OCc2cccc(-c3cccc(OCCCN4CC[C@@H](O)C4)c3C)c2C)cc1OCc1cncc(C#N)c1` [Example 1007, (R)-5-((2-((((1H-Tetrazol-5-yl)methyl)(ethyl)amino)methyl)-4-chloro-5-((3′-(3-(3-hydroxypyrrolidin-1-yl)propoxy)-2,2′-dimethyl-[1,1′-biphenyl]-3-yl)methoxy)phenoxy)methyl)nicotinonitrile], the half-maximal inhibitory concentration (IC50) was 3 nM.
Turning to `Cc1c(COc2cc(OCc3cncc(C#N)c3)c(CN3CCCC(c4nnc[nH]4)C3)cc2Cl)cccc1-c1cccc(OCCCN2CC[C@@H](O)C2)c1C` (stereo partly drawn) [Example 1008, 5-((2-((3-(4H-1,2,4-Triazol-3-yl)piperidin-1-yl)methyl)-4-chloro-5-((3′-(3-((R)-3-hydroxypyrrolidin-1-yl)propoxy)-2,2′-dimethyl-[1,1′-biphenyl]-3-yl)methoxy)phenoxy)-methyl)nicotinonitrile], the 50% inhibitory concentration (IC50) was found to be 4.2 nM.
Molecule `Cc1c(COc2cc(OCc3cncc(C#N)c3)c(CN3CCCCC3c3ncc[nH]3)cc2Cl)cccc1-c1cccc(OCCCN2CC[C@@H](O)C2)c1C` (stereo partly drawn) [Example 1009, 5-((2-((2-(1H-Imidazol-2-yl)piperidin-1-yl)methyl)-4-chloro-5-((3′-(3-((R)-3-hydroxy-pyrrolidin-1-yl)propoxy)-2,2′-dimethyl-[1,1′-biphenyl]-3-yl)methoxy)phenoxy)methyl)-nicotinonitrile] yielded a half-inhibitory concentration (IC50) of 0.5 nM.
As for `Cc1c(COc2cc(OCc3cncc(C#N)c3)c(CN3CCCCC3c3nc(=O)[nH][nH]3)cc2Cl)cccc1-c1cccc(OCCCN2CC[C@@H](O)C2)c1C` (stereo partly drawn) [Example 1010, 5-((4-Chloro-5-((3′-(3-((R)-3-hydroxypyrrolidin-1-yl)propoxy)-2,2′-dimethyl-[1,1′-biphenyl]-3-yl)methoxy)-2-((2-(5-oxo-2,5-dihydro-1H-1,2,4-triazol-3-yl)piperidin-1-yl)-methyl)phenoxy)methyl)nicotinonitrile], the figure is 5.3 nM.
Molecule `Cc1c(COc2cc(OCc3cncc(C#N)c3)c(CN3CCCCC3c3cn[nH]c3)cc2Cl)cccc1-c1cccc(OCCCN2CC[C@@H](O)C2)c1C` (stereo partly drawn) [Example 1011, 5-((2-((2-(1H-Pyrazol-4-yl)piperidin-1-yl)methyl)-4-chloro-5-((3′-(3-((R)-3-hydroxy-pyrrolidin-1-yl)propoxy)-2,2′-dimethyl-[1,1′-biphenyl]-3-yl)methoxy)phenoxy)methyl)-nicotinonitrile] showed an IC50 of 17.5 nM.
With `Cc1c(COc2cc(OCc3cncc(C#N)c3)c(CN3CCCCC3c3nnn[nH]3)cc2Cl)cccc1-c1cccc(OCCCN2CC[C@@H](O)C2)c1C` (stereo partly drawn) [Example 1012, 5-((2-((2-(1H-Tetrazol-5-yl)piperidin-1-yl)methyl)-4-chloro-5-((3′-(3-((R)-3-hydroxy-pyrrolidin-1-yl)propoxy)-2,2′-dimethyl-[1,1′-biphenyl]-3-yl)methoxy)phenoxy)methyl)-nicotinonitrile] the figure was 0.7 nM; with `Cc1c(COc2cc(OCc3cncc(C#N)c3)c(CNCC(C)c3nnn[nH]3)cc2Cl)cccc1-c1cccc(OCCCN2CC[C@@H](O)C2)c1C` (stereo partly drawn) [Example 1013, 5-((2-(((2-(1H-Tetrazol-5-yl)propyl)amino)methyl)-4-chloro-5-((3′-(3-((R)-3-hydroxy-pyrrolidin-1-yl)propoxy)-2,2′-dimethyl-[1,1′-biphenyl]-3-yl)methoxy)phenoxy)methyl)-nicotinonitrile], 3.2 nM; with `Cc1c(COc2cc(OCc3cncc(C#N)c3)c(CNCCc3nnnn3C)cc2Cl)cccc1-c1cccc(OCCCN2CC[C@@H](O)C2)c1C` [Example 1014, (R)-5-((4-Chloro-5-((3′-(3-(3-hydroxypyrrolidin-1-yl)propoxy)-2,2′-dimethyl-[1,1′-biphenyl]-3-yl)methoxy)-2-(((2-(1-methyl-1H-tetrazol-5-yl)ethyl)amino)methyl)-phenoxy)methyl)nicotinonitrile], 2.9 nM.
`Cc1c(COc2cc(OCc3cncc(C#N)c3)c(CN3CCCC3c3nnn[nH]3)cc2Cl)cccc1-c1cccc(OCCCN2CC[C@@H](O)C2)c1C` (stereo partly drawn) [Example 1015, 5-((2-((2-(1H-Tetrazol-5-yl)pyrrolidin-1-yl)methyl)-4-chloro-5-((3′-(3-((R)-3-hydroxy-pyrrolidin-1-yl)propoxy)-2,2′-dimethyl-[1,1′-biphenyl]-3-yl)methoxy)phenoxy)methyl)-nicotinonitrile] came in with a half-inhibitory concentration (IC50) of 2.9 nM.
On to `Cc1c(COc2cc(OCc3cncc(C#N)c3)c(CN(C)Cc3nnn[nH]3)cc2Cl)cccc1-c1cccc(OCCCN2CC[C@@H](O)C2)c1C` [Example 1016, (R)-5-((2-((((1H-Tetrazol-5-yl)methyl)(methyl)amino)methyl)-4-chloro-5-((3′-(3-(3-hydroxypyrrolidin-1-yl)propoxy)-2,2′-dimethyl-[1,1′-biphenyl]-3-yl)methoxy)phenoxy)-methyl)nicotinonitrile], for which the concentration for half-maximal inhibition (IC50) was 1.9 nM.
In turn, `Cc1c(COc2cc(OCc3cncc(C#N)c3)c(CN3CCC(c4nnn[nH]4)C3)cc2Cl)cccc1-c1cccc(OCCCN2CC[C@@H](O)C2)c1C` (stereo partly drawn) [Example 1017, 5-((2-((3-(1H-Tetrazol-5-yl)pyrrolidin-1-yl)methyl)-4-chloro-5-((3′-(3-((R)-3-hydroxy-pyrrolidin-1-yl)propoxy)-2,2′-dimethyl-[1,1′-biphenyl]-3-yl)methoxy)phenoxy)methyl)-nicotinonitrile] came in with a concentration for half-maximal inhibition (IC50) of 1.9 nM.
On to `Cc1c(COc2cc(OCc3cncc(C#N)c3)c(CN3CCCC(c4nnn[nH]4)C3)cc2Cl)cccc1-c1cccc(OCCCN2CC[C@@H](O)C2)c1C` (stereo partly drawn) [Example 1018, 5-((2-((3-(1H-Tetrazol-5-yl)piperidin-1-yl)methyl)-4-chloro-5-((3′-(3-((R)-3-hydroxy-pyrrolidin-1-yl)propoxy)-2,2′-dimethyl-[1,1′-biphenyl]-3-yl)methoxy)phenoxy)methyl)-nicotinonitrile], for which the concentration for half-maximal inhibition (IC50) amounted to 0.5 nM.
As for `Cc1c(COc2cc(OCc3cncc(C#N)c3)c(CN3CCCCC3c3cn[nH]c3)cc2Cl)cccc1-c1cccc(OCC2CCCN(C)C2)c1Cl` (stereo not shown) [Example 1020, 5-((2-((2-(1H-Pyrazol-4-yl)piperidin-1-yl)methyl)-4-chloro-5-((2′-chloro-2-methyl-3′-((1-methylpiperidin-3-yl)methoxy)-[1,1′-biphenyl]-3-yl)methoxy)phenoxy)methyl)-nicotinonitrile], the figure is 2.8 nM.
